Measured values published in patent US7879760B2, “Isopentyl carboxanilides for combating undesired micro-organisms” (Bayer CropScience AG, priority 2003, dated 2011).
Structures can show the parent of a compound that is named as a salt.

Key:
[1] = logP determination by HPLC on reversed phase column (C 18), EEC-Directive 79/831 Annex V.A8; assay type: physicochemical; conditions: reversed phase HPLC column (C 18), pH 2.3, 0.1% aqueous phosphoric acid/acetonitrile gradient, 43° C.
Protocol: The determination of the logP values given in preparation examples and tables above is carried out according to EEC-Directive 79/831 Annex V.A8 by HPLC (High Performance Liquid Chromatography) on a reversed phase column (C 18). Temperature: 43° C.
Determination is carried out in the acidic range at pH 2.3 using the mobile phases 0.1% aqueous phosphoric acid and acetonitrile; linear gradient from 10% acetonitrile to 90% acetonitrile.
Calibration is carried out using unbranched alkan-2-ones (of 3 to 16 carbon atoms) whose logP values are known (determination of the logP values by retention times using linear interpolation between two successive alkanones).

Podosphaera leucotricha = test: Podosphaera test (apple)/protective; assay type: in vivo; conditions: 240 h, apple plants, protective spray, application rate 100 g/ha, evaluation 10 days after inoculation, read-out: Efficacy in %
Protocol: To produce a suitable preparation of active compound, 1 part by weight of compound is mixed with the stated amounts of solvents and emulsifier, and the concentrate is diluted with water to the desired concentration.
To test for protective activity, young plants are sprayed with the preparation of active compound at the stated application rates. After the spray coating has dried on, the plants are inoculated with an aqueous spore suspension of the apple mildew pathogen Podosphaera leucotricha. The plants are then placed in a greenhouse at about 23° C. and a relative atmospheric humidity of about 70%.
Evaluation is carried out 10 days after the inoculation. 0% means an efficacy which corresponds to that of the control, whereas an efficacy of 100% means that no infection is observed.

Puccinia recondita = test: Puccinia test (wheat)/curative; assay type: in vivo; conditions: 192 h, wheat plants, curative spray 48 hours after inoculation, application rate 500 g/ha, evaluation 8 days after inoculation, read-out: Efficacy in %
Protocol: (§1) To produce a suitable preparation of active compound, 1 part by weight of active compound is mixed with the stated amounts of solvent and emulsifier, and the concentrate is diluted with water to the desired concentration.
To test for curative activity, young plants are sprayed with a conidia suspension of Puccinia recondita. The plants remain in an incubation cabin at 20° C. and 100% relative atmospheric humidity for 48 hours. The plants are then sprayed with the preparation of active compound at the stated application rates.
The plants are then placed in a greenhouse at a temperature of about 20° C. and a relative atmospheric humidity of 80% to promote the development of rust pustules.
Evaluation is carried out 8 days after the inoculation. 0% means an efficacy which corresponds to that of the control, whereas an efficacy of 100% means that no infection is observed.

Botrytis cinerea = test: Botrytis test (bean)/protective; assay type: in vivo; conditions: 48 h, bean plants, protective spray, application rate 500 g/ha, evaluation two days after inoculation, read-out: Efficacy in %
Protocol: To produce a suitable preparation of active compound, 1 part by weight of active compound is mixed with the stated amounts of solvents and emulsifier, and the concentrate is diluted with water to the desired concentration.
To test for protective activity, young plants are sprayed with the preparation of active compound at the stated application rates. After the spray coating has dried on, 2 small pieces of agar colonized by Botrytis cinerea are placed onto each leaf. The inoculated plants are placed in a dark chamber at about 20° C. and 100% relative atmospheric humidity.
Two days after the inoculation, the size of the infected areas on the leaves is evaluated. 0% means an efficacy which corresponds to that of the control, whereas an efficacy of 100% means that no infection is observed.

Sphaerotheca fuliginea = test: Sphaerotheca test (cucumber)/protective; assay type: in vivo; conditions: cucumber plants, protective spray; application rate 750 g/ha; evaluation 7 days after inoculation
Protocol: as §1
To test for protective activity, young cucumber plants are sprayed with the preparation of active compound at the stated application rates. One day after the treatment, the plants are inoculated with a spore suspension of Sphaerotheca fuliginea. The plants are then placed in a greenhouse at 70% relative atmospheric humidity and a temperature of 23° C.
Evaluation is carried out 7 days after the inoculation. 0% means an efficacy which corresponds to that of the control, whereas an efficacy of 100% means that no infection is observed.

Venturia inaequalis = test: Venturia test (apple)/protective; assay type: in vivo; conditions: apple plants, protective spray, application rate 100 g/ha, read-out: Efficacy in %
Protocol: [table] To produce a suitable preparation of active compound, 1 part by weight of active compound is mixed with the stated amounts of solvents and emulsifier, and the concentrate is diluted with water to the desired concentration. To test for protective activity, young plants are sprayed with the preparation of active compound at the stated application rates. After the spray coating has dried on, the plants are inoculated with an aqueous conidia suspension of the apple scab pathogen Venturia inaequalis and then remain in an incubation cabin at about 20° C. and 100% relative atmospheric humidity for 1 day. The plants are then placed in a greenhouse at about 21° C. and a relative atmospheric humidity of about 90%.

For `CC(C)(C)CCc1ccccc1N` [Example (III-3), 2-(3,3-dimethylbutyl)phenylamine hydrochloride], the chromatographic logP [1] was 2.2.
Compound `Cn1cc(C(=O)Nc2ccccc2CCC(C)(C)C)c(C(F)F)n1` [drawing 99] has a pest or weed control at 100 g/ha (Podosphaera leucotricha) of 100%.
For `Cn1cc(C(=O)Nc2ccc(F)cc2CCC(C)(C)C)c(C(F)F)n1` [drawing 127], the pest or weed control at 500 g/ha (Puccinia recondita) was 100%.
`Cc1nn(C)c(F)c1C(=O)Nc1ccccc1CCC(C)(C)C` [drawing 111] gave a pest or weed control at 500 g/ha (Botrytis cinerea) of 100%.
`CC(=O)Nc1ccccc1C#CC(C)(C)C` [Example (XIII-1), N-[2-(3,3-dimethylbut-1-ynyl)-phenyl]acetamide] showed a chromatographic logP [1] of 3.03.
Work on `Cc1nn(C)c(F)c1C(=O)Nc1ccccc1CCC(C)C` [drawing 128] yielded an Efficacy in % (Sphaerotheca fuliginea) of 100%.
`Cc1nn(C)c(F)c1C(=O)Nc1ccccc1CCC(C)C` [drawing 93] gave a pest or weed control at 100 g/ha (Podosphaera leucotricha) of 100%.
Work on `Cn1cc(C(=O)Nc2ccccc2CCC(C)(C)C)c(C(F)F)n1` [drawing 107] yielded a pest or weed control at 100 g/ha (Venturia inaequalis) of 100%.
In the case of `CCC(C)(C)CCc1ccccc1NC(=O)c1c(C)nn(C)c1F` [drawing 124], the pest or weed control at 500 g/ha (Puccinia recondita) is reported as 100%.
With `CC(C)CCc1ccccc1NC(=O)c1ccccc1C(F)(F)F` [drawing 122] the pest or weed control at 500 g/ha (Puccinia recondita) was 100%.
Compound `CC(C)CC(=O)c1ccccc1N` [Example (X-1), 1-(2-aminophenyl)-3-methylbutan-1-one] has a chromatographic logP [1] of 2.89.
In the case of `CCC(C)(C)CCc1ccccc1NC(=O)c1c(C)nn(C)c1F` [drawing 114], the pest or weed control at 500 g/ha (Botrytis cinerea) is reported as 100%.
`Cc1ccccc1C(=O)Nc1ccccc1CCC(C)(C)C` [drawing 96] gave a pest or weed control at 100 g/ha (Podosphaera leucotricha) of 97%.
With `Cc1ccccc1C(=O)Nc1ccccc1CCC(C)(C)C` [drawing 131] the Efficacy in % (Sphaerotheca fuliginea) was 100%.
`Cn1nc(C(F)(F)F)c(C(=O)Nc2ccccc2CCC(C)(C)C)c1F` [drawing 117] gave a pest or weed control at 500 g/ha (Botrytis cinerea) of 100%.
With `Cc1nn(C)c(F)c1C(=O)Nc1ccccc1CCC(C)(C)C` [drawing 120] the pest or weed control at 500 g/ha (Puccinia recondita) was 100%.
Compound `Cc1nn(C)c(F)c1C(=O)Nc1ccccc1CCC(C)C` [drawing 110] has a pest or weed control at 500 g/ha (Botrytis cinerea) of 84%.
`Cc1nn(C)c(F)c1C(=O)Nc1ccccc1C(=O)CC(C)C` [Example (V-1)] showed a chromatographic logP [1] of 3.42.
Compound `Cc1nn(C)c(F)c1C(=O)Nc1ccccc1CCC(C)C` [Example 1, 5-fluoro-1,3-dimethyl-N-[2-(3-methylbutyl)phenyl]-1H-pyrazole-4-carboxamide] has a chromatographic logP [1] of 3.12.
`Cc1ccsc1C(=O)Nc1ccccc1CCC(C)(C)C` [drawing 95] gave a pest or weed control at 100 g/ha (Podosphaera leucotricha) of 99%.
`Cn1nc(C(F)(F)F)c(C(=O)Nc2ccccc2CCC(C)(C)C)c1F` [drawing 100] gave a pest or weed control at 100 g/ha (Podosphaera leucotricha) of 100%.
For `CCC(C)(C)CCc1ccccc1NC(=O)c1cn(C)nc1C(F)F` [drawing 98], the pest or weed control at 100 g/ha (Podosphaera leucotricha) was 100%.
Compound `Cc1nn(C)c(F)c1C(=O)Nc1ccccc1CCC(C)C` [drawing 119] has a pest or weed control at 500 g/ha (Puccinia recondita) of 100%.
In the case of `CC(C)CCc1ccccc1NC(=O)c1ccccc1C(F)(F)F` [drawing 130], the Efficacy in % (Sphaerotheca fuliginea) is reported as 100%.
`CCC(C)(C)CCc1ccccc1NC(=O)c1cn(C)nc1C(F)F` [drawing 115] showed a pest or weed control at 500 g/ha (Botrytis cinerea) of 100%.
Work on `CCC(C)(C)CCc1ccccc1NC(=O)c1c(C)nn(C)c1F` [drawing 105] yielded a pest or weed control at 100 g/ha (Venturia inaequalis) of 100%.
In the case of `Cn1nc(C(F)(F)F)c(C(=O)Nc2ccccc2CCC(C)(C)C)c1F` [drawing 108], the pest or weed control at 100 g/ha (Venturia inaequalis) is reported as 100%.
`Cc1ccsc1C(=O)Nc1ccccc1CCC(C)(C)C` [drawing 121] gave a pest or weed control at 500 g/ha (Puccinia recondita) of 100%.
`Cc1ccsc1C(=O)Nc1ccccc1CCC(C)(C)C` [drawing 112] gave a pest or weed control at 500 g/ha (Botrytis cinerea) of 100%.
In the case of `CCC(C)(C)CCc1ccccc1NC(=O)c1cn(C)nc1C(F)F` [drawing 125], the pest or weed control at 500 g/ha (Puccinia recondita) is reported as 100%.
`CCC(C)(C)CCc1ccccc1NC(=O)c1cn(C)nc1C(F)F` [drawing 106] gave a pest or weed control at 100 g/ha (Venturia inaequalis) of 100%.
`Cc1ccsc1C(=O)Nc1ccccc1CCC(C)(C)C` [drawing 103] gave a pest or weed control at 100 g/ha (Venturia inaequalis) of 99%.
In the case of `Cc1nn(C)c(F)c1C(=O)Nc1ccccc1CCC(C)(C)C` [drawing 102], the pest or weed control at 100 g/ha (Venturia inaequalis) is reported as 100%.
Work on `CC(=O)Nc1ccccc1CCC(C)(C)C` [Example (III-2), N-[2-(3,3-dimethylbutyl)phenyl]acetamide] yielded a chromatographic logP [1] of 2.69.
For `Cn1cc(C(=O)Nc2ccc(F)cc2CCC(C)(C)C)c(C(F)F)n1` [drawing 118], the pest or weed control at 500 g/ha (Botrytis cinerea) was 100%.
Compound `Cc1nn(C)c(F)c1C(=O)Nc1ccccc1CCC(C)(C)C` [drawing 94] has a pest or weed control at 100 g/ha (Podosphaera leucotricha) of 100%.
`CC(C)(C)C#Cc1ccccc1NC(=O)c1ccccc1C(F)(F)F` [Example (VII-1), N-[2-(3,3-dimethylbut-1-ynyl)phenyl]-2-trifluoromethylbenzamide] showed a chromatographic logP [1] of 4.55.
`Cn1cc(C(=O)Nc2ccccc2CCC(C)(C)C)c(C(F)F)n1` [drawing 126] gave a pest or weed control at 500 g/ha (Puccinia recondita) of 100%.
Work on `Cn1cc(C(=O)Nc2ccc(F)cc2CCC(C)(C)C)c(C(F)F)n1` [drawing 109] yielded a pest or weed control at 100 g/ha (Venturia inaequalis) of 100%.
`Cc1ccsc1C(=O)Nc1ccccc1CCC(C)(C)C` [drawing 129] gave an Efficacy in % (Sphaerotheca fuliginea) of 100%.
`CCC(C)(C)CCc1ccccc1NC(=O)c1c(C)nn(C)c1F` [drawing 97] gave a pest or weed control at 100 g/ha (Podosphaera leucotricha) of 99%.
In the case of `Cc1ccccc1C(=O)Nc1ccccc1CCC(C)(C)C` [drawing 113], the pest or weed control at 500 g/ha (Botrytis cinerea) is reported as 87%.
In the case of `Cc1nn(C)c(F)c1C(=O)Nc1ccccc1CCC(C)C` [drawing 101], the pest or weed control at 100 g/ha (Venturia inaequalis) is reported as 96%.
Work on `Cn1cc(C(=O)Nc2ccccc2CCC(C)(C)C)c(C(F)F)n1` [drawing 116] yielded a pest or weed control at 500 g/ha (Botrytis cinerea) of 100%.
`Cc1ccccc1C(=O)Nc1ccccc1CCC(C)(C)C` [drawing 104] gave a pest or weed control at 100 g/ha (Venturia inaequalis) of 97%.
`Cc1ccccc1C(=O)Nc1ccccc1CCC(C)C` showed a pest or weed control at 500 g/ha (Puccinia recondita) of 100%.
